SMILES strings stand for the structures.

In general, melting point refers to the temperature of the solid-liquid transition.

`C=CCCOc1ccc(CCCOC(=O)NS(=O)(=O)NCCOC(C)C)c(Oc2ncc(C(F)(F)F)cc2Cl)c1` [Example 475, 3-(4-(but-3-en-1-yloxy)-2-{[3-chloro-5-(trifluoromethyl)pyridin-2-yl]oxy}phenyl)propyl {[(2-isopropoxyethyl)amino]sulfonyl}carbamate]: the melting point was 111.1 to 113 °C.

With `CCCCCS(=O)(=O)NC(=O)CCc1ccc(OCCOC)cc1OCC1CC1` [Example 167, 3-[2-(cyclopropylmethoxy)-4-(2-methoxyethoxy)phenyl]-N-(pentylsulfonyl)propanamide], the melting point fell in the range of 81.7 to 82.8 °C.

Compound `CCCCCS(=O)(=O)NC(=O)/C=C/c1ccc(OCCCOCCOC)cc1Oc1ncc(C(F)(F)F)cc1Cl` [Example 254, (2E)-3-{2-{[3-chloro-5-(trifluoromethyl)pyridin-2-yl]oxy}-4-[3-(2-methoxyethoxy)propoxy]phenyl}-N-(pentylsulfonyl)acrylamide] showed a melting point of 103 to 105 °C.

Take `COCCOc1ccc(CCC(=O)N(CCOC)S(N)(=O)=O)c(Oc2ncc(C(F)(F)F)cc2Cl)c1` [Example 213, N-(aminosulfonyl)-3-[2-{[3-chloro-5-(trifluoromethyl)pyridin-2-yl]oxy}-4-(2-methoxyethoxy)phenyl]-N-(2-methoxyethyl)propanamide]: the melting point lay within 101 to 101.1 °C.

With `CCCCOc1cc(/C=C/S(=O)(=O)NC(=O)OC(C)(C)C)n(Cc2ccc(Cl)cc2Cl)n1` [Example 127, tert-butyl ({(E)-2-[3-butoxy-1-(2,4-dichlorobenzyl)-1H-pyrazol-5-yl]vinyl}sulfonyl)carbamate], the melting point fell in the range of 152 to 153 °C.

`CCCCCS(=O)(=O)NC(=O)/C=C/c1ccc(OCCOC)cc1Oc1ncc(Br)cc1C` [Example 460, (2E)-3-[2-[(5-bromo-3-methylpyridin-2-yl)oxy]-4-(2-methoxyethoxy)phenyl]-N-(pentylsulfonyl)acrylamide] registered a melting point of 159.8 to 160.2 °C.

As to `CC(C)Oc1ccc(CCC(=O)NS(=O)(=O)c2ccccc2)c(Oc2ncc(C(F)(F)F)cc2Cl)c1` [Example 4, 3-(2-{[3-chloro-5-(trifluoromethyl)pyridin-2-yl]oxy}-4-isopropoxyphenyl)-N-(phenylsulfonyl)propanamide], the melting point was in the range of 129 to 129.5 °C.

As for `CCCCCS(=O)(=O)NC(=O)/C=C/c1cc(OCC2(C)COC2)nn1Cc1ccc(C(F)(F)F)cc1Cl` [Example 113, (2E)-3-{1-[2-chloro-4-(trifluoromethyl)benzyl]-3-[(3-methyloxetan-3-yl)methoxy]-1H-pyrazol-5-yl}-N-(pentylsulfonyl)acrylamide], the melting point was 144 to 147 °C.

`COCCCNS(=O)(=O)NC(=O)OCc1ccc(OCCOC)cc1Oc1ncc(C(F)(F)F)cc1Cl` [Example 75, 2-{[3-chloro-5-(trifluoromethyl)pyridin-2-yl]oxy}-4-(2-methoxyethoxy)benzyl {[(3-methoxypropyl)amino]sulfonyl}carbamate]: the melting point lay within 149 to 149.5 °C.

Consider `CC(C)CCS(=O)(=O)NC(=O)/C=C/c1cc(OC2CCOCC2)nn1Cc1ccc(Cl)cc1Cl` [Example 117, (2E)-3-[1-(2,4-dichlorobenzyl)-3-(tetrahydro-2H-pyran-4-yloxy)-1H-pyrazol-5-yl]-N-[(3-methylbutyl)sulfonyl]acrylamide], for which the melting point fell in the range of 143 to 144 °C.

Consider `COCCCNS(=O)(=O)NC(=O)OC/C=C/c1ccc(OCCOC)cc1Oc1ncc(C(F)(F)F)cc1Cl` [Example 432, (2E)-3-[2-{[3-chloro-5-(trifluoromethyl)pyridin-2-yl]oxy}-4-(2-methoxyethoxy)phenyl]prop-2-en-1-yl {[(3-methoxypropyl)amino]sulfonyl}carbamate], for which the melting point lay in the range of 98 to 100 °C.

In the case of `COCCOc1ccc(/C=C/COC(=O)NS(=O)(=O)c2ccc(Cl)cc2)c(Oc2ncc(C(F)(F)F)cc2Cl)c1.O.O` (hydrate or solvate) [Example 37, (2E)-3-[2-{[3-chloro-5-(trifluoromethyl)pyridin-2-yl]oxy}-4-(2-methoxyethoxy)phenyl]-2-propen-1-yl [(4-chlorophenyl)sulfonyl]carbamate dihydrate], the melting point was 174.5 °C (dec.).

`CCCCCS(=O)(=O)NC(=O)CCCc1ccc(OCCOC)cc1Oc1ncc(C(F)(F)F)cc1Cl` [Example 74, 4-[2-{[3-chloro-5-(trifluoromethyl)pyridin-2-yl]oxy}-4-(2-methoxyethoxy)phenyl]-N-(pentylsulfonyl)butanamide] returned a melting point of 96 to 97 °C.

Take `COCCOc1ccc(/C=C/C(=O)NS(=O)(=O)NCCc2ccccc2)c(Oc2ncc(C(F)(F)F)cc2Cl)c1` [Example 228, (2E)-3-[2-{[3-chloro-5-(trifluoromethyl)pyridin-2-yl]oxy}-4-(2-methoxyethoxy)phenyl]-N-{[(2-phenylethyl)amino]sulfonyl}acrylamide]: the melting point was in the range of 85 to 85.5 °C.

On to `CC(C)Oc1cc(CCC(=O)NS(=O)(=O)c2ccccc2)n(Cc2ccc(Cl)cc2Cl)n1` [Example 82, 3-[1-(2,4-dichlorobenzyl)-3-isopropoxy-1H-pyrazol-5-yl]-N-(phenylsulfonyl)propanamide], for which the melting point was in the range of 184 to 185 °C.

In turn, `CCN(CC)C(=O)COc1ccc(CCCOC(=O)NCC2CC2)c(Oc2ncc(C(F)(F)F)cc2Cl)c1` [Example 52, 3-{2-{[3-chloro-5-(trifluoromethyl)pyridin-2-yl]oxy}-4-[2-(diethylamino)-2-oxoethoxy]phenyl}propyl (cyclopropylmethyl)carbamate] returned a melting point of 94 to 94.5 °C.

Compound `COCCOc1ccc(/C=C/C(=O)NS(=O)(=O)c2ccccc2Cl)c(Oc2ncc(C(F)(F)F)cc2Cl)c1` [Example 235, (2E)-N-[(2-chlorophenyl)sulfonyl]-3-[2-{[3-chloro-5-(trifluoromethyl)pyridin-2-yl]oxy}-4-(2-methoxyethoxy)phenyl]acrylamide] gave a melting point of 168 to 169 °C.

`CCCCCS(=O)(=O)NC(=O)OCc1ccc(OCCCC)cc1Oc1ncc(C(F)(F)F)cc1Cl` [Example 62, 4-butoxy-2-{[3-chloro-5-(trifluoromethyl)pyridin-2-yl]oxy}benzyl (pentylsulfonyl)carbamate] registered a melting point of 124.5 to 125.5 °C.

`COCCCS(=O)(=O)NC(=O)CCc1ccc(OC(C)C)cc1Oc1ncc(C(F)(F)F)cc1Cl` [Example 202, 3-(2-{[3-chloro-5-(trifluoromethyl)pyridin-2-yl]oxy}-4-isopropoxyphenyl)-N-[(3-methoxypropyl)sulfonyl]propanamide] came in with a melting point of 114 to 115 °C.

Compound `COCCOc1ccc(/C=C/C(=O)NS(=O)(=O)c2cccc(C)c2)c(Oc2ncc(C(F)(F)F)cc2Cl)c1` [Example 241, (2E)-3-[2-{[3-chloro-5-(trifluoromethyl)pyridin-2-yl]oxy}-4-(2-methoxyethoxy)phenyl]-N-[(3-methylphenyl)sulfonyl]acrylamide] registered a melting point of 147 to 147.5 °C.

In turn, `CCOCCNS(=O)(=O)NC(=O)OCc1ccc(OCCOC)cc1Oc1ncc(C(F)(F)F)cc1Cl` [Example 76, 2-{[3-chloro-5-(trifluoromethyl)pyridin-2-yl]oxy}-4-(2-methoxyethoxy)benzyl {[(2-ethoxyethyl)amino]sulfonyl}carbamate] came in with a melting point of 142.5 to 143 °C.

Compound `CCCCCS(=O)(=O)NC(=O)/C=C/c1cc(OCCCC)nn1Cc1ccc(C(F)(F)F)cc1` [Example 103, (2E)-3-{3-butoxy-1-[4-(trifluoromethyl)benzyl]-1H-pyrazol-5-yl}-N-(pentylsulfonyl)acrylamide] returned a melting point of 159 to 160 °C.

Regarding `CCCCCS(=O)(=O)NC(=O)/C=C/c1cc(OCCOC)nn1Cc1ccc(C(F)(F)F)cc1Cl` [Example 149, (2E)-3-[1-[2-chloro-4 (trifluoromethyl)benzyl]-3-(2-methoxyethoxy)-1H-pyrazol-5-yl]-N-(pentylsulfonyl)acrylamide], the melting point was 130.5 to 132.5 °C.

As for `C/C(=C\c1ccc(OC(C)C)cc1Oc1ncc(C(F)(F)F)cc1Cl)C(=O)NS(=O)(=O)NCCOC(C)C` [Example 222, (2E)-3-(2-{[3-chloro-5-(trifluoromethyl)pyridin-2-yl]oxy}-4-isopropoxyphenyl)-N-{[(2-isopropoxyethyl)amino]sulfonyl}-2-methylacrylamide], the melting point fell in the range of 137.5 to 137.7 °C.

The compound `CCCCCS(=O)(=O)NC(=O)/C=C/c1ccc(OCCOC)cc1Oc1ncc(NC(=O)OC(C)(C)C)cc1C` [Example 192, tert-butyl [6-(5-(2-methoxyethoxy)-2-{(1E)-3-oxo-3-[(pentylsulfonyl)amino]prop-1-en-1-yl}phenoxy)-5-methylpyridin-3-yl]carbamate] showed a melting point of 149.5 to 150.2 °C.

The compound `CCOC(=O)COc1ccc(CCCOC(=O)NCC2CC2)c(Oc2ncc(C(F)(F)F)cc2Cl)c1` [Example 53, ethyl {3-{[3-chloro-5-(trifluoromethyl)-pyridin-2-yl]oxy}-4-[3-({[(cyclopropylmethyl)amino]carbonyl}-oxy)propyl]phenoxy}acetate] had a melting point of 112.8 to 113 °C.

Compound `CC(C)CCS(=O)(=O)NC(=O)/C=C/c1cc(OC2CCOCC2)nn1Cc1ccc(C(F)(F)F)cc1Cl` [Example 153, (2E)-3-[1-[2-chloro-4-(trifluoromethyl)benzyl]-3-(tetrahydro-2H-pyran-4-yloxy)-1H-pyrazol-5-yl]-N-[(3-methylbutyl)sulfonyl]acrylamide] gave a melting point of 149.5 to 152.5 °C.

The compound `COCCOc1ccc(CCCNS(=O)(=O)c2ccccc2[N+](=O)[O-])c(Oc2ncc(C(F)(F)F)cc2Cl)c1` [Example 29, N-{3-[2-{[3-chloro-5-(trifluoromethyl)pyridin-2-yl]oxy}-4-(2-methoxyethoxy)phenyl]propyl}-2-nitrobenzenesulfonamide] gave a melting point of 125.5 to 126 °C.

`CCCCCS(=O)(=O)NC(=O)CCc1ccc(OCCOC)cc1OCc1ccc(Cl)cc1Cl` [Example 169, 3-[2-[(2,4-dichlorobenzyl)oxy]-4-(2-methoxyethoxy)phenyl]-N-(pentylsulfonyl)propanamide] showed a melting point of 106.7 to 108.2 °C.

Consider `CCCCCS(=O)(=O)NC(=O)/C=C/c1ccc(OCCOC)cc1Oc1ncc(-c2ccccc2)cc1C` [Example 467, (2E)-3-{4-(2-methoxyethoxy)-2-[(3-methyl-5-phenylpyridin-2-yl)oxy]phenyl}-N-(pentylsulfonyl)acrylamide], for which the melting point fell in the range of 132.8 to 133.5 °C.

The values are drawn from patent US20100041892A1, “Therapeutic agent for diabetes” (priority 2005, published 2010).
